Starred links: 1 amine or outer side, 2 acyl side, 3 side chain; linkers in the order of their positions; H or OH if unused. Positions of bridges follow the written chain, without caps; N, C: chain ends. Non-standard residues stand in square brackets, D forms with d. Residues, ends and D or L forms follow the SMILES beside them. Chains are numbered I, II in the order given. Actinocin(9to1) = Cc1c2oc3c(C)ccc(C(=O)[*:1])c3nc-2c(C(=O)[*:2])c(N)c1=O; NMeV = CN[C@H](C(=O)O)C(C)C; Sar = CNCC(=O)O
Legend:
[1] = tested on: Jurkat P40 cells; assay: time-resolved apoptosis detection with fluorescence-labeled annexin V by fluorescence microscopy; assay type: cell-based; settings: 1 μg/ml
Protocol: 100,000 Jurkat P40 cells were simultaneously mixed with 1 μg/ml actinomycin D in the presence of 2 mM CaCl2 and fluorescence-labeled annexin V and incubated at 37° C. in 5% CO2 over a period of up to 24 h. After 4, 6, 8, 10 and 24 h, an aliquot was withdrawn, applied to a glass slide, fixed and analyzed by fluorescence microscopy. […] When the time elapsed was extended and the cell destruction more advanced, there would be a time when fluorescent cell debris would no longer be visible. It was shown that apoptosis in a solution can be followed in a time-resolved manner by recording images at different times. The reaction mix was prepared at the beginning, and subsequently, the increasing apoptosis was only analyzed by means of imaging methods.

[2] = marker which binds phosphatidylserine; binding depends on calcium cations; cited from earlier work

Molecule: Cc1c2oc3c(C)ccc(C(=O)N[C@@H]4C(=O)N[C@H](C(C)C)C(=O)N5CCC[C@H]5C(=O)N(C)CC(=O)N(C)[C@@H](C(C)C)C(=O)O[C@@H]4C)c3nc-2c(C(=O)N[C@@H]2C(=O)N[C@H](C(C)C)C(=O)N3CCC[C@H]3C(=O)N(C)CC(=O)N(C)[C@@H](C(C)C)C(=O)O[C@@H]2C)c(N)c1=O [actinomycin D] (I: T[dV]P[Sar][NMeV] / II: T[dV]P[Sar][NMeV]; ester I:1-I:C, II:1-II:C; linker I:N-II:N via Actinocin(9to1))
- degree of apoptosis (number of annexin V stained cells in the observation field) ([1]; 100,000 Jurkat P40 cells, 2 mM CaCl2, 37° C., 5% CO2, aliquots after 4, 6, 8, 10 and 24 h): the degree of apoptosis increases
- secondary necrosis (cell fragments) ([1]; Jurkat P40 cells, after 24 h): smaller cell fragments become visible which indicate secondary necrosis

Molecule: annexin V: marker which binds phosphatidylserine
- Kd [2]: 0.5 nM

— patent US6949350B1, “Chemosensitivity determination using phosphatidylserine” (Evotec Analytical Systems GmbH, priority 1999, dated 2005)
